This is an account of results in patent US9884849B2, “Fluorinated benzofuranyl-pyrimidine derivatives containing a sulfoximine group” (Bayer Pharma Aktiengesellschaft, priority 2014, dated 2018).

Structures are written as SMILES.

One may read the Papp A→B as how fast a substance crosses the layer from the apical side. The Papp B→A is the apparent permeability from the basolateral to the apical side of a cell layer.

This data set can be described thus: Caco-2 permeation assay (Method 4). To be noted: human, 2 μM test compound; for efflux ratio at 2 h, 2 μM: Caco-2, pH 7.2, read-out: Efflux ratio (Papp B-A/Papp A-B); for Papp A→B at 2 h, 2 μM / Papp B→A at 2 h, 2 μM: Caco-2, 2 h incubation, pH 7.2; for Papp A→B at 2 h, 2 μM: read-out: Papp A-B (Mari); for Papp B→A at 2 h, 2 μM: read-out: Papp B-A (Mari). The class given is in vitro ADME. How it is done: 4. Caco-2 Permeation Assay:
Caco-2 cells (purchased from DSMZ Braunschweig, Germany) were seeded at a density of 4.5×10^4 cells per well on 24 well insert plates, 0.4 μm pore size, and grown for 15 days in DMEM medium supplemented with 10% fetal bovine serum, 1% GlutaMAX (100×, GIBCO), 100 U/mL penicillin, 100 μg/mL streptomycin (GIBCO) and 1% non essential amino acids (100×). Cells were maintained at 37° C. in a humified 5% CO2 atmosphere. Medium was changed every 2-3 day. Before running the permeation assay, the culture medium was replaced by a FCS-free hepes-carbonate transport buffer (pH 7.2). For assessment of monolayer integrity the transepithelial electrical resistance (TEER) was measured. Test compounds were predissolved in DMSO and added either to the apical or basolateral compartment in final concentration of 2 μM in transport buffer. Before and after 2 h incubation at 37° C. samples were taken from both compartments. Analysis of compound content was done after precipitation with methanol by LC/MS/MS analysis. Permeability (Papp) was calculated in the apical to basolateral (A→B) and basolateral to apical (B→A) directions. The apparent permeability was calculated using following equation: Papp=(Vr/Po)(1/S)(P2/t)
Where Vr is the volume of medium in the receiver chamber, Po is the measured peak area or height of the test drug in the donor chamber at t=o, S the surface area of the monolayer, P2 is the measured peak area of the test drug in the acceptor chamber after 2 h of incubation, and t is the incubation time. The efflux ratio basolateral (B) to apical (A) was calculated by dividing the Papp B-A by the Papp A-B. In addition the compound recovery was calculated.

In the case of `CS(=N)(=O)Cc1cccc(Nc2ncc(F)c(-c3ccc(F)c4ccoc34)n2)c1` (racemic) [Example 4, (rac)-5-Fluoro-4-(4-fluoro-1-benzofuran-7-yl)-N-{3-[(S-methylsulfonimidoyl)-methyl]phenyl}-pyrimidin-2-amine], the efflux ratio at 2 h, 2 μM turned out to be 0.57; the Papp A→B at 2 h, 2 μM is 18.3 ×10⁻⁶ cm/s; the Papp B→A at 2 h, 2 μM came to 10.4 ×10⁻⁶ cm/s.
In the case of `CS(=N)(=O)Cc1cccc(Nc2ncc(F)c(-c3ccc(F)c4ccoc34)n2)c1` (single isomer, unassigned) [Example 6, 5-Fluoro-4-(4-fluoro-1-benzofuran-7-yl)-N-{3-[(S-methylsulfonimidoyl)-methyl]-phenyl}-pyrimidin-2-amine], the efflux ratio at 2 h, 2 μM is 0.51; the Papp A→B at 2 h, 2 μM is 22.1 ×10⁻⁶ cm/s; the Papp B→A at 2 h, 2 μM is 11.3 ×10⁻⁶ cm/s.
